Key:
[1] = DPPH radical scavenging assay; assay type: biochemical; settings: supplement tables; for DPPH, mean±SD: n = 3
Description: The DPPH radical scavenging activity of the sample was assessed following a modified protocol based on a previous study. In each well of a 96-well plate, 10 μL of the sample was added, followed by 190 μL of 0.1 mM DPPH solution in 70% ethanol. The mixture was then incubated at room temperature in the dark for 30 min. After the incubation period, the absorbance of the mixture was measured at 517 nm. The DPPH radical scavenging activity was calculated using the following equation (1):
DPPHradicalscavengingactivity%=Acontrol–Asample/Acontrol×100 (1)
In this equation, Acontrol represents the absorbance of a control solution containing all reagents except for the test samples, while Asample is the absorbance of the mixture (the sample combined with 0.1 mM DPPH). To determine the Trolox equivalent antioxidant capacity (TEAC), a Trolox standard curve was utilized. The results were expressed as millimoles of Trolox equivalents per milligram of protein (mM TE/mg protein).

[2] = ABTS radical scavenging assay; assay type: biochemical; settings: supplement tables; for ABTS, mean±SD: n = 3
Description: The ABTS radical scavenging activity of the sample was measured using a method adapted from Mirzaei et al.. The ABTS radical was generated by mixing 7 mM ABTS with 2.45 mM potassium persulfate in a 1:1 ratio and incubating the mixture in the dark at room temperature for 12 to 16 h. The resulting solution was then diluted to achieve an absorbance of 0.74 ± 0.03 at 734 nm, using deionized water for adjustments. Next, 10 μL of the sample was added to 190 μL of the ABTS solution. The mixture was incubated in the dark for 7 min, after which the absorbance was measured at 734 nm. The ABTS radical scavenging activity (%) was calculated using the following equation (2):
ABTSradicalscavengingactivity%=Acontrol–Asample/Acontrol×100 (2)
In this equation, Acontrol refers to the absorbance of the control solution (which contains all reagents except the test samples), while Asample refers to the absorbance of the mixture containing the sample and the ABTS solution. To determine the Trolox equivalent antioxidant capacity (TEAC), a Trolox standard curve was used, and the results were expressed as millimoles of Trolox equivalents per milligram of protein (mM TE/mg protein).

[3] = Ferric reducing antioxidant power (FRAP) assay; assay type: biochemical
Description: The FRAP assay was conducted following the method outlined by Rumpf et al.. The FRAP solution was prepared by mixing 300 mM acetate buffer (pH 3.6), 10 mM TPTZ (2,4,6-Tris(2-pyridyl)-s-triazine) in 40 mM hydrochloric acid, and 20 mM FeCl3 in a ratio of 10:1:1. In a 96-well plate, 10 μL of the sample was combined with 190 μL of the FRAP solution and incubated in the dark for 15 min. The absorbance of the mixture was then measured at 593 nm. FeSO4 was used to create the standard curve, and the results were expressed as millimoles of FeSO4 equivalent per milligram of protein (mM FeSO4/mg protein).

RAW 264.7 [4] = assay: Anti-inflammation assay: released NO in LPS-stimulated RAW 264.7 (Griess); assay type: cell-based, Murine; settings: then 1 µg/mL LPS 24 h; for Released NO: peptide 10 µg/mL 1 h; for Released NO, mean±SD: peptide 10 µg/mL pre-treatment 1 h, Griess reagent, n = 3
Description: (§1) Murine macrophage cells (RAW 264.7; ATCC TIB-71™) were cultured in Dulbecco’s Modified Eagle’s Medium (DMEM) that was supplemented with 10% heat-inactivated fetal bovine serum (FBS) and 1% antibiotic solution. Colorectal adenocarcinoma cells (CaCo-2; ATCC HTB 37™) were cultured in Eagle’s Minimum Essential Medium (EMEM), also supplemented with 10% heat-inactivated FBS and 1% antibiotic solution. Both cell types were maintained in a humidified incubator with 5% CO2. The cell culture medium was refreshed every three days.
The anti-inflammation assay was conducted following the method described by Barzkar et al. with slight modifications. RAW 264.7 (1 x 10^5 cells) was seeded into a 96-well plate to allow for cell attachment. After 24 h, the cells were pre-treated with fresh medium containing peptide samples at a concentration of 10 µg/mL for 1 h. Subsequently, the treated cells were stimulated with 1 µg/mL lipopolysaccharide (LPS) for an additional 24 h. Unstimulated cells were included as a negative control. At the end of the treatment period, the conditioned medium was collected for the determination of released nitric oxide (NO). Griess’s reagent (Promega) was utilized to measure the NO concentration, following the manufacturer’s instructions. A NO calibration curve was generated to quantify the released NO in the conditioned medium.

RAW 264.7 [5] = assay: Cytotoxicity assessment (MTT); assay type: cell-based, Murine; settings: peptide 10 µg/mL, 72 h; for Cell viability, mean±SD: relative to untreated cells, n = 3, SD
Description: as §1
Cytotoxicity assessment was performed following the method described by Yang et al., with slight modifications. RAW 264.7 was seeded with 1 x 10^5 cells in a 96-well plate with an appropriate cell culture medium. After allowing the cells to attach, the medium was replaced with a fresh cell culture medium containing the peptide samples at a concentration of 10 µg/mL. The treated cells were incubated for an additional 72 h. At the designated time, fresh medium was added, which included 3-(4,5-dimethylthiazol-2-yl)-2,5-diphenyltetrazolium bromide (MTT) at a concentration of 0.5 mg/mL. After 3 h, formazan crystals were observed. The medium was then removed, and the crystals were dissolved in 100% dimethyl sulfoxide (DMSO). A microplate reader (Synergy HTX; Biotek, Multi-Mode Reader, Winooski, VT, USA) was utilized to measure the absorbance at 570 nm (measurement wavelength) and 630 nm (reference wavelength). The percentage of cell viability was calculated relative to untreated cells using the following equation (5):
Cellviability%=ODtreatment–ODblank/ODuntreated–ODblank×100 (5)
Where ODtreatment is the absorbance of the treated sample, ODuntreated is the absorbance of the untreated sample, and ODblank is the absorbance from wells without treated and untreated samples.

[6] = 10 µL sample + 190 µL FRAP solution, 15 min dark, 593 nm, FeSO4 standard curve, mean ± SD, n = 3, SD

Sequence: DAENKENVEE [P18, synthesized peptide identified from jellyfish fraction PUR20C]
- DPPH, mean±SD [1]: 6.03±0.79^D TE/mg protein
- DPPH ([1]; replicate 1): 5.23 TE/mg protein
- DPPH ([1]; replicate 2): 6.03 TE/mg protein
- DPPH ([1]; replicate 3): 6.82 TE/mg protein
- ABTS, mean±SD [2]: 6.05 TE/mg protein
- ABTS ([2]; replicate 1): 5.71 TE/mg protein
- ABTS ([2]; replicate 2): 5.51 TE/mg protein
- ABTS ([2]; replicate 3): 6.91 TE/mg protein
- FRAP [3, 6]: 4.40±0.43^H mM FeSO4/mg protein
- FRAP ([3]; supplement tables, replicate 1): 4.89 mM FeSO4/mg protein
- FRAP ([3]; supplement tables, replicate 2): 4.05 mM FeSO4/mg protein
- FRAP ([3]; supplement tables, replicate 3): 4.26 mM FeSO4/mg protein
- Released NO (RAW 264.7 [4]; replicate 1): 34.13 µM
- Released NO (RAW 264.7 [4]; replicate 2): 31.37 µM
- Released NO (RAW 264.7 [4]; replicate 3): 31.03 µM
- Released NO, mean±SD (RAW 264.7 [4]): 32.18±1.70^F µM
- Cell viability, mean±SD (RAW 264.7 [5]): 89.16%
- Cell viability (RAW 264.7 [5]; replicate 1): 86.29%
- Cell viability (RAW 264.7 [5]; replicate 2): 87.17%
- Cell viability (RAW 264.7 [5]; replicate 3): 94.02%

Sequence: EIDKLPPESRP [P7, synthesized peptide identified from jellyfish fraction PUR20C]
- DPPH, mean±SD [1]: 1.96 TE/mg protein
- DPPH ([1]; replicate 1): 1.52 TE/mg protein
- DPPH ([1]; replicate 2): 1.78 TE/mg protein
- DPPH ([1]; replicate 3): 2.58 TE/mg protein
- ABTS, mean±SD [2]: 1.64 TE/mg protein
- ABTS ([2]; replicate 1): 1.71 TE/mg protein
- ABTS ([2]; replicate 2): 1.71 TE/mg protein
- ABTS ([2]; replicate 3): 1.50 TE/mg protein
- FRAP [3, 6]: 12.40±1.36^C mM FeSO4/mg protein
- FRAP ([3]; supplement tables, replicate 1): 11.00 mM FeSO4/mg protein
- FRAP ([3]; supplement tables, replicate 2): 13.73 mM FeSO4/mg protein
- FRAP ([3]; supplement tables, replicate 3): 12.47 mM FeSO4/mg protein
- Released NO (RAW 264.7 [4]; replicate 1): 35.51 µM
- Released NO (RAW 264.7 [4]; replicate 2): 37.58 µM
- Released NO (RAW 264.7 [4]; replicate 3): 33.79 µM
- Released NO, mean±SD (RAW 264.7 [4]): 35.63 ± 1.89 µM
- Cell viability, mean±SD (RAW 264.7 [5]): 81.60%
- Cell viability (RAW 264.7 [5]; replicate 1): 81.72%
- Cell viability (RAW 264.7 [5]; replicate 2): 81.89%
- Cell viability (RAW 264.7 [5]; replicate 3): 81.19%

Sequence: EQIYPMGEGDEL [P4, synthesized peptide identified from jellyfish fraction PUR20C]
- DPPH, mean±SD [1]: 3.81±0.30^E TE/mg protein
- DPPH ([1]; replicate 1): 3.64 TE/mg protein
- DPPH ([1]; replicate 2): 3.64 TE/mg protein
- DPPH ([1]; replicate 3): 4.17 TE/mg protein
- ABTS, mean±SD [2]: 103.41±1.20^F TE/mg protein
- ABTS ([2]; replicate 1): 103.28 TE/mg protein
- ABTS ([2]; replicate 2): 102.27 TE/mg protein
- ABTS ([2]; replicate 3): 104.68 TE/mg protein
- FRAP [3, 6]: 8.40 mM FeSO4/mg protein
- FRAP ([3]; supplement tables, replicate 1): 8.89 mM FeSO4/mg protein
- FRAP ([3]; supplement tables, replicate 2): 8.47 mM FeSO4/mg protein
- FRAP ([3]; supplement tables, replicate 3): 7.84 mM FeSO4/mg protein
- Released NO (RAW 264.7 [4]; replicate 1): 38.96 µM
- Released NO (RAW 264.7 [4]; replicate 2): 35.86 µM
- Released NO (RAW 264.7 [4]; replicate 3): 36.55 µM
- Released NO, mean±SD (RAW 264.7 [4]): 37.12 µM
- Cell viability, mean±SD (RAW 264.7 [5]): 82.77±0.92%
- Cell viability (RAW 264.7 [5]; replicate 1): 83.12%
- Cell viability (RAW 264.7 [5]; replicate 2): 83.47%
- Cell viability (RAW 264.7 [5]; replicate 3): 81.72%
